According to patent US20230263800A1, “COMPOSITIONS AND METHODS TO PROMOTE THYMIC FUNCTION” (Fred Hutchinson Cancer Center, priority 2020, published 2023):
“Also recorded” adds a separate entry of the source. Where two headings read alike, the source gives them in different places.

Assays:
Foxn1 in C9 (cTEC) cells = assay: Foxn1 expression by qPCR in C9 cells; type: cell-based, mouse
Protocol: (§1) FIGS. 7A, 7B. […] Graphs represent mean±SEM, each dot represents a biologically independent observation (n=3 independent experiments). *, p<0.05; **, p<0.01; ***p<0.001.
(§2) FIGS. 18A-18G. Thymuses were harvested at d0, d1, d2, and d3 after TBI (550 cGy) and (18A) mitochondrial membrane potential, (18B) Reactive oxygen species (ROS) levels, and (18C) glutathione levels were measured in DP thymocytes and cTECs (n=4-7 mice from 1-2 experiments). (18D) Foxn1 expression in FACs-purified cTECs at d0, d4, and d7 after TBI; (18E) Intracellular Ca2+ levels were measured on whole thymus harvested at d0, d2, d4, and d7 post SL-TBI. (18F, 18G) Foxn1 expression levels were measured by qPCR in (18F) C9, and (18G) TE71 cells after treatment with Tunicamycin (5 ug/ml) or Thapsigargan (1 μg/ml). Graphs represent mean+/−SD.
FIGS. 19A, 19B. (19A) C9s were treated with (19A) ATP and P2X7 antagonist or (19B) P2Y2 agonist or antagonist and FOXN1 expression was assessed by qPCR after 20 h. Graphs represent mean+/−SEM.
(§3) Cell cultures. exEC were generated as previously described (Seandel et al., Proc Natl Acad Sci USA. 2008, 105(49):19288-19293). Cells were cultured in presence of ultrapure Zn sulfate monohydrate purchased from Alfa Aesar (Haverhill, Mass. #1113809) or sodium pyrythione (Sigma Aldrich, St. Louis, Mo. #H3261-1G). TC-G 1008 was used in cell cultures at a final concentration of 25 μM. Silencing of the zinc receptor Gpr39 was performed by electroporation using Nucleofector electroporation kit (VPI-1001, Lonza; Program M-003, Nucleofector 2b, Lonza), and the GPR39 siRNA Silencer Select (Thermo, Waltham, Mass.). Mouse C9 (cTEC) and TE-71 (mTEC) cells were kindly provided by A. Farr, University of Washington.
PCR and Microarray. Reverse transcription-PCR was performed with iScript Clear gDNA cDNA synthesis kit (Bio Rad, Hercules, Calif.) on CFX96 (Bio Rad, Hercules, Calif.) with iTaq Universal SYBR Green (Bio Rad). Relative amounts of mRNA were calculated by the comparative AC(t) method or as relative expression. SYBR Green gene expression assays for qPCR, including Bmp4 (Mm00432087_m1), Foxn1 (Mm00433948_m1), beta-actin, Gpr39, Top1 were all purchased from Life Technologies (Carlsbad, Calif.) and Bio Rad (Hercules, Calif.). b-actin: synthesized by IDT, F: 5′-[…]-3′ (SEQ ID NO: 6), R: 5′-[…]-3′ (SEQ ID NO: 7). Top1: synthesized by IDT, sequences provided by PrimerBank, PrimerBank ID 6678399a1. Bmp4: Biorad qMmuCED0046239. Foxn1: Biorad qMmuCED0044924. Microarray data from CD45^− cells was analyzed on day 0, 4 and 7 as previously described (Wertheimer et al., Science Immunology. 2018, 3(19)) (GSE106982) and differential gene expression of Gpr39 was calculated.

[1] = system: C57BL/6 mice given sublethal TBI; assay: Thymic regeneration after sublethal total body irradiation (SL-TBI, 550 cGy); type: in vivo, mouse; details: for thymic regeneration (thymus cellularity): day 14
Excerpt: FIGS. 4A-4G. […] (4A, 4B) 6-8 week-old female C57BL/6 mice were fed a normal or ZD diet for 21 days at which point mice were given a sublethal dose of total body irradiation (TBI, 550 cGy). (4A) Total thymic cellularity at days 7 and 14 after TBI (n=10/treatment/timepoint across two independent experiments). (4B) Total number of CD45-EpCAM^+MHCII^+UEA1^loLy51^hi (cTECs) and CD45^− EpCAM^+MHCII^+UEA1^hi Ly51^lo (mTECs) at days 7 and 14 after TBI (n=10/treatment/timepoint across two independent experiments). (4C) 6-12 week-old female BALB.B mice were fed with normal or ZD diet for 21 days, at which point mice were given a lethal dose of TBI (900cGy) and 10×10^6 T cell-depleted bone marrow (BM) cells from 6-8 week-old C57BL/6. One cohort also received 2×10^6 T cells to induce graft versus host disease (GVHD); thymic cellularity was quantified on day 14 after allogeneic hematopoietic stem cell transplant (allo-HCT, n=5-6/group). (4D) 6-8 week-old female C57BL/6 mice were fed with normal or ZD diet for 21 days at which point mice were given 550 cGy TBI and total thymus cellularity quantified on day 14. […] (4E) Total thymic cellularity. (4F) Total number of cTECs and mTECs. (4G) Total number of Ki-67+ thymic endothelial cells (TECs). […]

Bmp4 in exECs [2] = assay: BMP4 protein by ELISA in exECs; type: cell-based, mouse
Protocol: FIGS. 10A-10F. G-protein coupled receptor 39 (GPR39) expressed by thymic endothelial cells is the central mediator of Zn-centered regeneration. […] Bmp4 expression was measured by qPCR (n=6 combined from two independent experiments). (10B) GPR39 expression across subsets in the thymus by flow cytometry at baseline. […] (10C) Expression of GPR39 on cTECs, mTECs, ECs and fibroblasts at days 0, 4, and 7 after TBI. […] BM P4 was measured by ELISA.

C9 (cTEC) cells = details: graded doses of ZnSO4, 24 h
Protocol: as §1, §3
(§4) ELISA and Western Blot. Cell culture or tissue lysates were prepared in RIPA buffer (Thermo, Waltham, Mass.) as previously described (Wertheimer et al., Science Immunology. 2018, 3(19)) and normalized by BCA assay (Thermo, Waltham, Mass.). BMP4 levels were quantified by ELISA (LSBio, Seattle, Wash.) and read on a Spark 10M plate reader (Tecan, Switzerland). Cortisol levels were measured with ELISA on peripheral blood (R&D systems, Minneapolis, Minn.).

TE-71 (mTEC) cells = details: TE-71 cells, graded doses of ZnSO4, 24 h
Protocol: as §1, §3, §4

[3] = system: Foxn1 in TE-71 (mTEC) cells; assay: Foxn1 expression by qPCR in TE-71 cells; type: cell-based, mouse
Protocol: as §2
PCR and Microarray. […] Bmp4: Biorad qMmuCED0046239. Foxn1: Biorad qMmuCED0044924.

BMP4 = system: BMP4
Excerpt: (§5) FIGS. 8A-8F. […] (8A) 6-8 week-old female C57BL/6 mice were fed a normal or ZD diet for 21 days at which point mice were given 550 cGy TBI. […] Levels of BMP4 were quantified by enzyme-linked immunoassay (ELISA) at day 10 after TBI (n=5-10/group from one independent experiment). […] Mice were maintained on Zn-supplemented drinking water for the duration of the study. (8B) BMP4 levels measured by ELISA at day 10 (n=9/group combined from three independent experiments). (8C) Endothelial cells (ECs) were fluorescence-activated cell sorting (FACS) purified at day 7 and Bmp4 expression was measured by qPCR (n=6/group combined from two independent experiments). […] Total thymus cellularity was quantified at day 10 after TBI (n=5/group from one independent experiment).
as §4

[4] = system: Bmp4 in endothelial cells (ECs); details: 300 mg/kg/day ZnSO4 21 days before TBI, ECs sorted at day 7
Excerpt: as §5
PCR and Microarray. Reverse transcription-PCR was performed with iScript Clear gDNA cDNA synthesis kit (Bio Rad, Hercules, Calif.) on CFX96 (Bio Rad, Hercules, Calif.) with iTaq Universal SYBR Green (Bio Rad). Relative amounts of mRNA were calculated by the comparative AC(t) method or as relative expression. […] Microarray data from CD45^− cells was analyzed on day 0, 4 and 7 as previously described (Wertheimer et al., Science Immunology. 2018, 3(19)) (GSE106982) and differential gene expression of Gpr39 was calculated.

Bmp4 in exECs [5] = assay: Bmp4 expression by qPCR in exECs; type: cell-based, mouse; details: ZnSO4 50 and 100 μM, 24 hours
[6] = 300 mg/kg/day ZnSO4 in drinking water for 21 days, Fluozin-3 and ICP-MS
Protocol: FIGS. 9A-9G. […] (9A, 9B) 6-8 week-old female C57BL/6 mice were given 550 cGy TBI and levels of Zn were measured by inductively coupled plasma mass spectrometry (ICP-MS). (9A) Total thymic amounts of Zn from both intracellular and extracellular fractions of thymus (n=6/timepoint). (9B) Extracellular Zn was measured only in thymic supernatants and the ratio of extracellular to total thymic Zn was calculated (n=6/timepoint). […] Thymocytes were isolated either before or 48 hours after TBI and co-cultured with exECs. Bmp4 expression was measured by qPCR at 24 hours (n=3-4/group). […] Thymus cellularity was measured at day 28 after TBI (n=4-5/group). (9E) 6-8 week-old female C57BL16 mice were fed a normal or ZD diet for 21 days after which thymocytes were isolated by CD90+ magnetic separation. Intracellular Zn levels were measured by staining with Fluozin-3 and assessed by flow cytometry (n=5/group across two independent experiments).

[7] = system: mice given TCD allo-HCT from RAG2-GFP donors; details: ZnSO4 in drinking water, peripheral blood and spleen after HCT, day 53
Protocol: FIGS. 12A-12D. […] (12A). […] (12B) Splenic T cells were analyzed for GFP expression on day 53 (n=4-5/group).

[8] = system: lineage-negative bone marrow (BM) co-cultured with OP9-DL1 cells; details: ZnSO4 10 μM added from day 0, read at day 30, versus control
Excerpt: Concatenated flow cytometry plots displaying CD4 and CD8 expression at day 30 (n=5 independent experiments).
To confirm the importance of Zn on T cell maturation, lineage-negative bone marrow (BM) isolated from C57BL/6 mice were co-cultured on the OP9-DLL1 system, which is able to support T cell development in vitro (Schmitt et al., Nat Immunol. 2004, 5(4):410-417; and Holmes et al., Cold Spring Harb Protoc. 2009, 2009(2):pdb prot5156).
OP9-DL1 cells were kindly provided by J. C. Zuniga-Pflucker, University of Toronto and cultured as previously described (Holmes et al., Cold Spring Harb Protoc. 2009, 2009(2):pdb prot5156) using lineage-negative BM (using a lineage depletion kit, Miltenyi Biotech, Germany). Flt-3L and IL-7 were purchased from Peprotech (Rocky Hill, N.J.).

ERK1/2 = details: exECs stimulated with Zn
Excerpt: Flow cytometry, multidimensional analyses, and FACS sorting. For flow cytometry and cell sorting, surface antibodies against CD45 (30-F11), CD31 (390 or MEC13.3), CD90.2 (30-H12), TER-119 (TER-119), CD4 (RM4-5 or GK1.5), CD8 (53-6.7), TCRβ (H57-597), CD3 (145-2C11), CD44 (IM7), CD25 (PC 61.5), CD62L (MEL14), MHC-II IA/IE (M5/114.15.2), EpCAM (G8.8), Ly51 (6C3), CD11c (HL3), IL-7Ra (A7R34), CCR6 (140706), CD45.1 (A20), CD45.2 (104), ki-67 (16A8), and PDGFRa (APAS) were purchased from BD Biosciences (Franklin Lakes, N.J.), BioLegend (San Diego, Calif.) or eBioscience (San Diego, Calif.). Ulex europaeus agglutinin 1 (UEA-1), conjugated to FITC or Biotin, was purchased from Vector Laboratories (Burlingame, Calif.). GPR39 conjugated to FITC was purchased from Signalway Antibody (College Park, Md.). Red blood cell lysis was performed with ACK buffer (Thermo Scientific, Waltham, Mass.). Flow cytometry was performed on a Fortessa X50 (BD Biosciences, Franklin Lakes, N.J.) and cells were sorted on an Aria II (BD Biosciences) using FACSDiva (BD Biosciences, Franklin Lakes, N.J.). For intracellular cytokine or phosphoprotein analysis, cells were fixed and permeabilized using Fix Buffer I and Phospho-Perm Buffer III from BD Bioscience (Franklin Lakes, N.J.). Fluozin-3 AM was purchased from Thermo Fisher (Waltham, Mass.). Analysis was performed by FlowJo (Treestar Software, Ashland, Oreg.).

Cc1ccc2c(c1)C=Cc1cc(C)ccc1C2c1cn(Cc2ccc(C(=O)Nc3nn[nH]n3)o2)c(=O)[nH]c1=S [AR-C 1182925XX]
effect on P2Y2 agonist-induced Foxn1 expression (Foxn1 in C9 (cTEC) cells; C9 cells, P2Y2 antagonist, 20 h): reversed

Nc1ncnc2c1ncn2[C@@H]1O[C@H](COP(=O)(O)OP(=O)(O)OP(=O)(O)O)[C@@H](O)[C@H]1O [ATP]
thymic regeneration (thymus cellularity) ([1]; ATP by intraperitoneal injection at d3 after SL-TBI (legend: 5 mg/kg bzATP)): superior thymic regeneration; also recorded: enhancing thymus cellularity
Foxn1 expression (Foxn1 in C9 (cTEC) cells; C9 cells, ATP, 20 h): potent inducer of FOXN1

Nc1[nH]nc2nnc(-c3c(-c4ccccc4)nn4ccccc34)cc12 [FR180204]
BMP4 production (Bmp4 in exECs [2]; ERK inhibitor FR180204 prior to ZnSO4 (100 μM), 24 hours): BMP4 production was abrogated

O=c1ccn([C@@H]2O[C@H](COP(=O)([O-])OP(=O)([O-])OP(=O)([O-])OP(=O)([O-])Oc3ccccc3)[C@@H](O)[C@H]2O)c(=O)[nH]1.[Na+].[Na+].[Na+].[Na+] [MRS 2768, tetrasodium; [[(2R,3S,4R,5R)-5-(2,4-dioxopyrimidin-1-yl)-3,4-dihydroxyoxolan-2-yl]methoxy-oxidophosphoryl] [oxido-[oxido(phenoxy)phosphoryl]oxyphosphoryl] phosphate]
thymic regeneration (thymus cellularity) ([1]; MRS 2768 5 mg/kg IP at day 3 after 550 cGy TBI, 5 mg/kg): superior thymic regeneration; also recorded: enhancing thymus cellularity
cTEC numbers ([1]; MRS 2768 5 mg/kg, d13 following TBI, 5 mg/kg): increased cTEC numbers; also recorded: expanding cTECs
Foxn1 expression (Foxn1 in C9 (cTEC) cells): increase in Foxn1 expression

O=S(=O)([O-])[O-].[Zn+2] [ZnSO4, zinc sulphate]
TEC proliferation (C9 (cTEC) cells): did not show any direct effect
TEC proliferation (TE-71 (mTEC) cells): did not show any direct effect
Foxn1 expression (Foxn1 in C9 (cTEC) cells; C9 cells, 100 μM ZnSO4, 24 h): did not show any direct effect
Foxn1 expression ([3]; TE-71 cells, 100 μM ZnSO4, 24 h): did not show any direct effect
BMP4 levels in the thymus (BMP4; 300 mg/kg/day ZnSO4 21 days before TBI without prior ZD, day 10): increased levels of BMP4
BMP4 levels in the thymus (BMP4; ZD diet 21 days, 550 cGy TBI, 300 mg/kg/day ZnSO4 in drinking water from day 0, day 10): restored BMP4 levels
Bmp4 expression in purified ECs [4]: increased expression of Bmp4
transcription of Bmp4 (Bmp4 in exECs [5]): dose-dependent increase
BMP4 protein (Bmp4 in exECs [2]; ZnSO4, 48 hours): confirmed at the protein level
intracellular Zn in thymocytes [6]: significantly increased levels of intracellular Zn
GFP+ CD4+ and CD8+ lymphocytes (recent thymic emigrants) [7]: higher levels of GFP+CD4+ and CD8+ lymphocytes
production of DP (CD4+CD8+) cells [8]: more robust production of DP
phosphorylation of ERK1/2 (ERK1/2): led to phosphorylation of ERK1/2

C/C=C(/C)C(=O)O[C@H]1C(C)=C2[C@H]([C@@H]1OC(=O)CCCCCCC)[C@@](C)(OC(C)=O)C[C@H](OC(=O)CCC)[C@@]1(O)[C@H]2OC(=O)[C@@]1(C)O [thapsigargan]
effect on tunicamycin-induced Foxn1 expression (Foxn1 in C9 (cTEC) cells; C9 cells, Thapsigargan 1 μg/ml): reversed
effect on tunicamycin-induced Foxn1 expression ([3]; TE71 cells, Thapsigargan 1 μg/ml): reversed

tunicamycin
Foxn1 expression (Foxn1 in C9 (cTEC) cells; C9 cells, Tunicamycin 5 ug/ml): induced Foxn1 expression
Foxn1 expression ([3]; TE71 cells, Tunicamycin 5 ug/ml): induced Foxn1 expression
